PMC10525132, “Potent Antioxidant and Anti-Tyrosinase Activity of Butein and Homobutein Probed by Molecular Kinetic and Mechanistic Studies” (Antioxidants, 2023)

Experiments:
[1] = tested on: mTYR; test: Stability toward air and mTYR, oxygen consumption; conditions: 0.1 mM, pH 6.8, 30 °C, axes [O2] M vs Time / s
[2] = target: T1, mushroom tyrosinase (mTYR) (Agaricus bisporus, UniProt C7FF04); test: Inhibition of mushroom tyrosinase monophenolase reaction (substrate L-tyrosine, dopachrome at 475 nm); assay type: biochemical; conditions: for Vmax^app / IC50: 30 °C; for Vmax^app: pH 6.8, L-tyrosine; for IC50: IC50 Monophenolase; for inhibition mode, monophenolase: from M-M and Lineweaver–Burk plots; for KI′ Calc. from Km / KI′ Calc. from Vmax / KI′ Uncompetitive / Ki: monophenolase; for Ki: KI Competitive
T1 construct: purchased Sigma-Aldrich (Milan, Italy)
Experimental: (§1) Measurements were performed at 30 °C in phosphate buffer (50 mM, pH 6.8) in polystyrene low-volume cuvettes (1.5 mL, l = 1 cm) with a double-beam spectrophotometer. […] The reaction was monitored at 475 nm for up to 60 min, following dopachrome formation. Initial velocity (V = ΔA/Δmin) was converted in μM/min according to Lambert–Beer law using the molar extinction coefficient ε = 3700 M^−1cm^−1 for dopachrome at λmax = 475 nm. Michaelis–Menten parameters (Km e Vmax) were obtained by processing initial velocity vs. substrate concentration data by non-linear fitting to M-M Equation (4), using Sigmaplot 11.0 (Systat Software Inc., San Jose, CA, USA). Linearized Lineweaver–Burk Equation (5) was used to identify the inhibition mode. In both equations, V indicates the measured initial rate of reaction, [S] is the initial substrate concentration, while Vmax and Km are, respectively, the maximum reaction rate (at saturating substrate concentration) and the M-M constant, with the substrate concentration yielding half-maximum rate.
(§2) Determination of M-M inhibition constants KI and KI′, along with assignment of the inhibition mode, is the most reliable method to accurately quantify the potency of enzyme inhibitors, as it is independent of the experimental settings, like substrate and enzyme concentrations.

[3] = target: T1, mushroom tyrosinase (mTYR); test: Inhibition of mushroom tyrosinase diphenolase reaction (substrate L-dopa, dopachrome at 475 nm); assay type: biochemical; conditions: for Vmax^app / IC50: 30 °C; for Vmax^app: pH 6.8, L-dopa; for IC50: IC50 Diphenolase; for Ki: KI Competitive; for inhibition mode, diphenolase: from M-M and Lineweaver–Burk plots
Experimental: as §1
(10) KI=[I]/α−1 and KI′=[I]/α^′−1 where (11) α=(Kmapp × α^′)/Km and α^′=Vmax/Vmaxapp
as §2

[4] = Inhibited autoxidation of methyl linoleate in Triton X-100 micelles (O2 uptake kinetics); conditions: for n (stoichiometric factor of peroxyl radical trapping): MeLin/Triton X-100 micelles
Experimental: Autoxidation studies were performed as previously described, with slight modifications. In a typical experiment, 2.5 mL of air-saturated buffered (PBS, 50 mM, pH 7.4) aqueous dispersion of MeLin (final concentration 2.74 mM) in Triton™ X-100 (final concentration 16 mM) micelles were prepared by vortex mixing. A fresh stock solution of AAPH was added (final concentration 2.5 mM), immediately followed by addition (5–30 μL) of a stock solution of the antioxidant in acetonitrile (final concentration of 1–20 μM) and by additional vortex mixing (5 s). The mixture was sealed in a 2 mL glass vial provided with a PTFE-coated stirring bar and capped with the O2 sensor. The sample was equilibrated at 37 °C in a thermostatted bath equipped with a sealed magnetic stirrer, and oxygen concentration was monitored with time as previously described. Oxygen consumption in the absence of antioxidants was compared with that recorded in the presence of butein, homobutein, or α-tocopherol (α-TOH) as the reference antioxidant. […]. The stoichiometric factor n was determined from the length of the inhibited period τ by Equation (3). The rate of initiation Ri was determined in preliminary experiments using α-TOH as the inhibitor (n = 2) by Equation (3). (1) −d[O2]/dt=kp[RH]Ri/nkinh[AH]+Ri (2) R0/Rinh−Rinh/R0=nkinh[AH]/2ktRi (3) n=Riτ/[AH]
To study the antioxidant activity of butein and homobutein on quantitative grounds, we performed inhibited autoxidation studies using biomimetic neutral micelles of methyl linoleate (MeLin) in aqueous Triton™ X-100 (with 50 mM PBS, pH 7.4, 37 °C), since it is a well-validated model we and others used in previous studies. The reaction kinetics was followed by monitoring oxygen consumption via miniaturized NIR-fluorescence-quenching O2 probes, according to a previously validated protocol, both in the absence and in the presence of different concentrations of butein or homobutein. The reaction was initiated thermally in the aqueous phase by the controlled decomposition of the azo compound AAPH so as to clearly distinguish the chain-breaking mechanism from other efficacies based on interference with the initiation process (e.g., the Fenton reaction by metal chelation) and α-TOH was used as the reference antioxidant.

[5] = average over inhibitor concentrations
[6] = diphenolase, average over inhibitor concentrations
[7] = AAPH (2.5 mM) initiated autoxidation of MeLin/Triton X-100 micelles, 37 °C, pH 7.4
[8] = MeLin in Triton X-100 micelles, pH 7.4, 37 °C
[9] = diphenolase, inhibitor 0.175 µM

T1 sequence (C7FF04 1-392): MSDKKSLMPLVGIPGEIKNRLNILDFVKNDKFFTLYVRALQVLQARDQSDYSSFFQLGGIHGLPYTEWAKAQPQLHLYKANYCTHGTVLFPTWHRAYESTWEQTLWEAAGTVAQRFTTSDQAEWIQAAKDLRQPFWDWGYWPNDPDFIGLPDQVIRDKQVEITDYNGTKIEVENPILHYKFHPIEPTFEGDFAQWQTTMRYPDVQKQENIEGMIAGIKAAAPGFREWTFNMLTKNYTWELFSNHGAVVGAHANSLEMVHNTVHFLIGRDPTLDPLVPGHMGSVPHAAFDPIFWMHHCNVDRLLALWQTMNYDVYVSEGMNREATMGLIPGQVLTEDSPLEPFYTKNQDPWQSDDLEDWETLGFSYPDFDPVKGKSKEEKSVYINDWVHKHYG

For `O=C(/C=C/c1ccc(O)c(O)c1)c1ccc(O)cc1O` [Butein, (E)-1-(2,4-dihydroxyphenyl)-3-(3,4-dihydroxyphenyl)prop-2-en-1-one], the “oxygen consumption, zero order regression slope b[1]” value ([1]; with tyrosinase 7 U/ml) was -2.789e-9, the “oxygen consumption, zero order regression slope b[1]” value ([1]; without enzyme) was -1.989e-9 and the “Vmax^app” value ([2]; inhibitor 1.4 µM) was 3.24 ± 0.07 µM/min. The “Vmax^app” value ([2]; inhibitor 2.8 µM) was 3.02 ± 0.05 µM/min, the “Vmax^app” value ([2]; inhibitor 5.6 µM) was 2.21 ± 0.04 µM/min and the “Vmax^app” value ([2]; inhibitor 11.2 µM) was 1.95 ± 0.07 µM/min. It also gave an IC50 ([2]; pH 6.8, L-tyrosine 0.05 mM) of 45.1 ± 18.3 µM, an IC50 ([2]; pH 6.8, L-tyrosine 0.125 mM) of 35.6 ± 28.4 µM and an IC50 ([2]; pH 6.8, L-tyrosine 0.25 mM) of 12.9 ± 3.22 µM. For the same molecule, the IC50 ([2]; pH 6.8, L-tyrosine 0.50 mM) was 12.3 ± 2.52 µM, the IC50 ([2]; pH 6.8, L-tyrosine 1.00 mM) was 10.9 ± 2.19 µM and the “inhibition mode, monophenolase” value [2] was “uncompetitive”. The “inhibition mode, monophenolase” value ([2]; listed as BU) was “reversible uncompetitive”, the “KI′ Calc. from Km” value [2, 5] was 10.74 ± 3.36 µM and the “KI′ Calc. from Vmax” value [2, 5] was 9.17 ± 2.01 µM. The “KI′ Uncompetitive” value ([2]; averaged over both calculation methods) was 9.95 µM, the “KI′ Uncompetitive” value ([2]; averaged over both calculation methods, listed as BU) was 9.95 ± 2.69 µM and the “KI′ Calc. from Km” value ([2]; inhibitor 1.4 µM) was 7.47 µM. For the same molecule, the “KI′ Calc. from Vmax” value ([2]; inhibitor 1.4 µM) was 7.44 µM, the “KI′ Calc. from Km” value ([2]; inhibitor 2.8 µM) was 10.50 µM and the “KI′ Calc. from Vmax” value ([2]; inhibitor 2.8 µM) was 10.19 µM. The “KI′ Calc. from Km” value ([2]; inhibitor 5.6 µM) was 9.60 µM, the “KI′ Calc. from Vmax” value ([2]; inhibitor 5.6 µM) was 7.55 µM and the “KI′ Calc. from Km” value ([2]; inhibitor 11.2 µM) was 15.40 µM. For the same molecule, the “KI′ Calc. from Vmax” value ([2]; inhibitor 11.2 µM) was 11.49 µM, the “Vmax^app” value ([3]; inhibitor 1.4 µM) was 10.93 ± 0.22 µM/min and the “Vmax^app” value ([3]; inhibitor 2.8 µM) was 10.60 ± 0.88 µM/min. For the same molecule, the “Vmax^app” value ([3]; inhibitor 5.6 µM) was 8.17 ± 0.21 µM/min, the “Vmax^app” value ([3]; inhibitor 11.2 µM) was 7.42 ± 0.26 µM/min and the IC50 ([3]; pH 6.8, L-dopa 0.05 mM) was 3.76 ± 0.96 µM. The IC50 ([3]; pH 6.8, L-dopa 0.125 mM) was 4.12 ± 1.39 µM, the IC50 ([3]; pH 6.8, L-dopa 0.25 mM) was 5.38 ± 0.9 µM and the IC50 ([3]; pH 6.8, L-dopa 0.50 mM) was 9.31 ± 0.85 µM. For the same molecule, the IC50 ([3]; pH 6.8, L-dopa 1.00 mM) was 15.2 ± 1.25 µM, the Ki [3, 6] was 3.3 ± 0.75 µM and the Ki ([3]; diphenolase, inhibitor 1.4 µM) was 3.21 µM. The Ki ([3]; diphenolase, inhibitor 2.8 µM) was 2.59 µM, the Ki ([3]; diphenolase, inhibitor 5.6 µM) was 3.07 µM and the Ki ([3]; diphenolase, inhibitor 11.2 µM) was 4.35 µM. The “KI (competitive) lower than KI′ (uncompetitive)” value ([3]; diphenolase) was “about 5 fold”, the “KI′ Uncompetitive” value [3, 6] was 18.75 ± 5.15 µM and the “KI′ Uncompetitive” value ([3]; diphenolase, inhibitor 1.4 µM) was 18.04 µM. The “KI′ Uncompetitive” value ([3]; diphenolase, inhibitor 2.8 µM) was 25.24 µM, the “KI′ Uncompetitive” value ([3]; diphenolase, inhibitor 5.6 µM) was 12.68 µM and the “KI′ Uncompetitive” value ([3]; diphenolase, inhibitor 11.2 µM) was 19.05 µM. The “inhibition mode, diphenolase” value [3] was “mixed-type”, the “kinh (inhibition rate constant)” value [4, 7] was 29.8 ± 9.2 10^3 M^−1s^−1 and the “kinh (inhibition rate constant)” value [4, 8] was “(3.0 ± 0.9) × 10^4 M^−1s^−1”. For the same molecule, the “kinh (inhibition rate constant)” value ([4]; MeLin in Triton X-100 micelles, pH 7.4, 37 °C, listed as butein) was 30000 M⁻¹ s⁻¹, the “n (stoichiometric factor of peroxyl radical trapping)” value ([4]; 37 °C, pH 7.4) was 3.7 ± 1.1 and the “n (stoichiometric factor of peroxyl radical trapping)” value ([4]; 37 °C, pH 7.4, listed as butein) was 3.7.

For `COc1cc(/C=C/C(=O)c2ccc(O)cc2O)ccc1O` [Homobutein, (E)-1-(2,4-dihydroxyphenyl)-3-(4-hydroxy-3-methoxyphenyl)prop-2-en-1-one], the “oxygen consumption, zero order regression slope b[1]” value ([1]; with tyrosinase 7 U/ml) was -3.664e-9, the “oxygen consumption, zero order regression slope b[1]” value ([1]; without enzyme) was -2.859e-9 and the “Vmax^app” value ([2]; inhibitor 1.4 µM) was 3.83 ± 0.04 µM/min. The “Vmax^app” value ([2]; inhibitor 2.8 µM) was 3.78 ± 0.05 µM/min, the “Vmax^app” value ([2]; inhibitor 5.6 µM) was 3.63 ± 0.06 µM/min and the “Vmax^app” value ([2]; inhibitor 11.2 µM) was 3.15 ± 0.03 µM/min. The IC50 ([2]; pH 6.8, L-tyrosine 0.05 mM) was 4.01 ± 0.66 µM, the IC50 ([2]; pH 6.8, L-tyrosine 0.125 mM) was 4.58 ± 0.88 µM and the IC50 ([2]; pH 6.8, L-tyrosine 0.25 mM) was 6.06 ± 0.95 µM. For the same molecule, the IC50 ([2]; pH 6.8, L-tyrosine 0.50 mM) was 8.75 ± 1.18 µM, the IC50 ([2]; pH 6.8, L-tyrosine 1.00 mM) was 14.8 ± 1.05 µM and the Ki [2, 5] was 2.76 ± 0.7 µM. For the same molecule, the Ki ([2]; inhibitor 1.4 µM) was 2.19 µM, the Ki ([2]; inhibitor 2.8 µM) was 2.24 µM and the Ki ([2]; inhibitor 5.6 µM) was 2.94 µM. For the same molecule, the Ki ([2]; inhibitor 11.2 µM) was 3.67 µM, the “inhibition mode, monophenolase” value [2] was “nearly competitive” and the “KI′ Uncompetitive” value ([2]; mixed-type treatment, average) was 140.53 ± 94.57 µM. The “KI′ Uncompetitive” value ([2]; mixed-type treatment, inhibitor 1.4 µM) was 268.10 µM, the “KI′ Uncompetitive” value ([2]; mixed-type treatment, inhibitor 2.8 µM) was 151.20 µM and the “KI′ Uncompetitive” value ([2]; mixed-type treatment, inhibitor 5.6 µM) was 92.40 µM. For the same molecule, the “KI′ Uncompetitive” value ([2]; mixed-type treatment, inhibitor 11.2 µM) was 50.40 µM, the “Vmax^app” value ([3]; inhibitor 0.175 µM) was 11.48 ± 0.22 µM/min and the “Vmax^app” value ([3]; inhibitor 0.70 µM) was 11.30 ± 0.88 µM/min. The “Vmax^app” value ([3]; inhibitor 1.4 µM) was 11.10 ± 0.21 µM/min, the “Vmax^app” value ([3]; inhibitor 5.6 µM) was 10.84 ± 0.26 µM/min and the IC50 ([3]; pH 6.8, L-dopa 0.05 mM) was 3.04 ± 0.84 µM. The IC50 ([3]; pH 6.8, L-dopa 0.125 mM) was 3.83 ± 0.94 µM, the IC50 ([3]; pH 6.8, L-dopa 0.25 mM) was 5.6 ± 1.07 µM and the IC50 ([3]; pH 6.8, L-dopa 0.50 mM) was 7.57 ± 1.11 µM. For the same molecule, the IC50 ([3]; pH 6.8, L-dopa 1.00 mM) was 12.4 ± 2 µM, the Ki [3, 6] was 2.5 ± 1.56 µM and the Ki [3, 9] was 1.28 µM. For the same molecule, the Ki ([3]; diphenolase, inhibitor 0.70 µM) was 1.54 µM, the Ki ([3]; diphenolase, inhibitor 1.4 µM) was 2.46 µM and the Ki ([3]; diphenolase, inhibitor 5.6 µM) was 4.72 µM. The “lowest concentration with clear inhibition detectable” value ([3]; diphenolase) was 175 nM, the “KI′ Uncompetitive” value [3, 6] was 38.24 ± 27.81 µM and the “KI′ Uncompetitive” value [3, 9] was 16.75 µM. The “KI′ Uncompetitive” value ([3]; diphenolase, inhibitor 0.70 µM) was 26.38 µM, the “KI′ Uncompetitive” value ([3]; diphenolase, inhibitor 1.4 µM) was 30.83 µM and the “KI′ Uncompetitive” value ([3]; diphenolase, inhibitor 5.6 µM) was 79.01 µM. For the same molecule, the “inhibition mode, diphenolase” value [3] was “nearly competitive”, the “kinh (inhibition rate constant)” value [4, 7] was 2.8 ± 0.9 10^3 M^−1s^−1 and the “kinh (inhibition rate constant)” value [4, 8] was “(2.8 ± 0.9) × 10^3 M^−1s^−1”. The “kinh (inhibition rate constant)” value ([4]; MeLin in Triton X-100 micelles, pH 7.4, 37 °C, listed as homobutein) was 2800 M⁻¹ s⁻¹.
